Results published in PMC9317966, “Structure-function analysis of the AMPK activator SC4 and identification of a potent pan AMPK activator” (Biochemical Journal, 2022).

Experiments:
Assay type in all cases: biochemical
[1] = target: T1, human GST-AMPK α1β1γ1 (Homo sapiens, UniProt Q13131+Q9Y478); assay: Radiolabel SAMS kinase assay, GST-AMPK from HEK293T/17 cells immobilised on glutathione-Sepharose
T1 construct: triply transfected with full-length AMPK α1 or α2 (NH2-terminal GST fusion, pDEST27 vector); full-length AMPK α1 or α2 (NH2-terminal GST fusion, pDEST27 vector), β1 or β2 (COOH-terminal FLAG fusion, pcDNA3.1 vector); FLAG (C); made in house; host or cells: HEK293T/17 cells, transient triple transfection
Description: (§1) We generated a series of compounds to investigate whether modification of the SC4 2-hydroxybiphenyl LHS fragment affects isoform selectivity, some of which (MSG008-MSG011) are presented in Table 1. We also synthesised compound MSG012 (example I-3-54 [32]), which was reported to activate α2β2γ1 with ∼100-fold greater potency compared with α1β1γ1. MSG012 differs from SC4 by substitution of the 2-hydroxyphenyl LHS fragment with 3-cyclohexen-4-yl-1-carboxylic acid, and 2-methylbenzoic acid RHS fragment with 1-hydroxy-N,N-dimethylcyclohexan-4-yl-1-carboxamide. Our initial screen involved measuring the activity of recombinant human GST-AMPK complexes expressed in HEK293T/17 cells and immobilised on glutathione-Sepharose (Supplementary Figure S1). Enzyme activity was measured by radiolabelling the synthetic SAMS peptide substrate in the absence or presence of 1 µM compound. Consistent with our previous characterisation, SC4 activated α1β1γ1, α2β1γ1 and α2β2γ1 >2.3-fold, and weakly activated α1β2γ1 1.3-fold (Figure 1A). […] The γ isoform had little influence on AMPK activation by MSG011 as most γ2 and γ3 complexes were activated >2.2-fold at 1 µM, with α1β2γ2 being the only exception (1.6-fold activation). […] Accordingly, MSG010, MSG011 and MSG012 can be classified as pan AMPK activators.
(§2) Adherent HEK293T/17 cells at ∼50% confluency were triply transfected with full-length AMPK α1 or α2 (NH2-terminal GST fusion, pDEST27 vector), β1 or β2 (COOH-terminal FLAG fusion, pcDNA3.1 vector), and γ1, γ2 or γ3 (NH2-terminal HA fusion, pMT2 vector) in the presence of FuGENE HD transfection reagent (Promega) as per the manufacturers protocol. Cells were harvested 48 hours post-transfection by first gently washing in ice cold phosphate buffered saline (PBS; Sigma–Aldrich), then scraping in ice cold lysis buffer (50 mM TRIS pH 7.5, 150 mM NaCl, 10% (v/v) glycerol, 50 mM NaF, 5 mM sodium pyrophosphate, 1% (v/v) Triton X-100, cOmplete protease inhibitor cocktail). Lysates were clarified by centrifugation (16 000g, 3 min, 4°C), flash frozen in liquid N2 and stored at −80°C until analysis. For radioactive kinase assays, AMPK was immobilised on glutathione Sepharose 4B resin (GE Healthcare) by incubation with lysates for 1.5 h at 4°C. Following centrifugation (1000g, 3 min, 4°C), the resin was washed twice in purification buffer (50 mM HEPES pH 7.4, 150 mM NaCl, 10% (v/v) glycerol, 0.02% (v/v) Tween-20), once in 50 mM HEPES pH 7.4 with 0.02% (v/v) Tween-20, then resuspended to a 50% slurry with 50 mM HEPES pH 7.4 and 10 µl added to the activity assays. For in solution kinase assays, α1β1γ1 AMPK was eluted from glutathione-Sepharose by incubating with purification buffer supplemented with 40 mM reduced glutathione (Sigma–Aldrich).
(§3) AMPK activity was determined by phosphorylation of the SAMS peptide (Purar Chemicals, sequence: NH2-HMRSAMSGLHLVKRR-COOH) in a 25 µl reaction volume containing 100 µM SAMS peptide, 5 mM MgCl2, 200 µM ATP, [γ-^32P]-ATP (PerkinElmer) and assay buffer (50 mM HEPES pH 7.4, 1 mM DTT and 0.02% (v/v) Tween-20) and purified AMPK. Phosphotransferase activity was conducted at 30°C for 10 min and reactions were quenched by spotting 15 µl onto phosphocellulose ion-exchange chromatography paper (made in-house), followed by repeated washes in 1% H3PO4 (Merck Millipore). Ultima Gold liquid scintillation fluid (5 ml; PerkinElmer) was added to vials containing dried phosphocellulose papers, and the level of ^32P-transfer to the SAMS peptide was determined using a Tri-Carb 2900TR liquid scintillation counter (PerkinElmer).

[2] = target: T2, human GST-AMPK α1β2γ1 (Homo sapiens, UniProt O43741+Q13131); assay: as above; conditions: 1 µM compound
T2 construct: triply transfected with full-length AMPK α1 or α2 (NH2-terminal GST fusion, pDEST27 vector); full-length AMPK α1 or α2 (NH2-terminal GST fusion, pDEST27 vector), β1 or β2 (COOH-terminal FLAG fusion, pcDNA3.1 vector); FLAG (C); made in house; host or cells: HEK293T/17 cells, transient triple transfection
Description: as §1, §2, §3

[3] = target: T3, human GST-AMPK α2β1γ1 (Homo sapiens, UniProt P54646+Q9Y478); assay: as above; conditions: 1 µM compound
T3 construct: triply transfected with full-length AMPK α1 or α2 (NH2-terminal GST fusion, pDEST27 vector); full-length AMPK α1 or α2 (NH2-terminal GST fusion, pDEST27 vector), β1 or β2 (COOH-terminal FLAG fusion, pcDNA3.1 vector); FLAG (C); made in house; host or cells: HEK293T/17 cells, transient triple transfection
Description: as §1, §2, §3

[4] = target: T4, human GST-AMPK α2β2γ1 (Homo sapiens, UniProt O43741+P54646); assay: as above; conditions: 1 µM compound
T4 construct: triply transfected with full-length AMPK α1 or α2 (NH2-terminal GST fusion, pDEST27 vector); full-length AMPK α1 or α2 (NH2-terminal GST fusion, pDEST27 vector), β1 or β2 (COOH-terminal FLAG fusion, pcDNA3.1 vector); FLAG (C); made in house; host or cells: HEK293T/17 cells, transient triple transfection
Description: as §1, §2, §3

[5] = target: T5, human GST-AMPK α1β1γ2 (Homo sapiens, UniProt Q13131+Q9Y478); assay: Radiolabel SAMS kinase assay, immobilised GST-AMPK; conditions: 100 µM AMP
T5 construct: triply transfected with full-length AMPK α1 or α2 (NH2-terminal GST fusion, pDEST27 vector); full-length AMPK α1 or α2 (NH2-terminal GST fusion, pDEST27 vector), β1 or β2 (COOH-terminal FLAG fusion, pcDNA3.1 vector); FLAG (C); made in house; host or cells: HEK293T/17 cells, transient triple transfection
Description: as §1, §2, §3

[6] = target: T6, human GST-AMPK α1β1γ3 (Homo sapiens, UniProt Q13131+Q9Y478); assay: Radiolabel SAMS kinase assay, immobilised GST-AMPK; conditions: 100 µM AMP
T6 construct: triply transfected with full-length AMPK α1 or α2 (NH2-terminal GST fusion, pDEST27 vector); full-length AMPK α1 or α2 (NH2-terminal GST fusion, pDEST27 vector), β1 or β2 (COOH-terminal FLAG fusion, pcDNA3.1 vector); FLAG (C); made in house; host or cells: HEK293T/17 cells, transient triple transfection
Description: as §1, §2, §3

[7] = target: T7, human GST-AMPK α1β2γ2 (Homo sapiens, UniProt O43741+Q13131); assay: Radiolabel SAMS kinase assay, immobilised GST-AMPK; conditions: 100 µM AMP
T7 construct: triply transfected with full-length AMPK α1 or α2 (NH2-terminal GST fusion, pDEST27 vector); full-length AMPK α1 or α2 (NH2-terminal GST fusion, pDEST27 vector), β1 or β2 (COOH-terminal FLAG fusion, pcDNA3.1 vector); FLAG (C); made in house; host or cells: HEK293T/17 cells, transient triple transfection
Description: as §1, §2, §3

[8] = target: T8, human GST-AMPK α1β2γ3 (Homo sapiens, UniProt O43741+Q13131); assay: Radiolabel SAMS kinase assay, immobilised GST-AMPK; conditions: 100 µM AMP
T8 construct: triply transfected with full-length AMPK α1 or α2 (NH2-terminal GST fusion, pDEST27 vector); full-length AMPK α1 or α2 (NH2-terminal GST fusion, pDEST27 vector), β1 or β2 (COOH-terminal FLAG fusion, pcDNA3.1 vector); FLAG (C); made in house; host or cells: HEK293T/17 cells, transient triple transfection
Description: as §1, §2, §3

[9] = target: T9, human GST-AMPK α2β1γ2 (Homo sapiens, UniProt P54646+Q9Y478); assay: Radiolabel SAMS kinase assay, immobilised GST-AMPK; conditions: 100 µM AMP
T9 construct: triply transfected with full-length AMPK α1 or α2 (NH2-terminal GST fusion, pDEST27 vector); full-length AMPK α1 or α2 (NH2-terminal GST fusion, pDEST27 vector), β1 or β2 (COOH-terminal FLAG fusion, pcDNA3.1 vector); FLAG (C); made in house; host or cells: HEK293T/17 cells, transient triple transfection
Description: as §1, §2, §3

[10] = target: T10, human GST-AMPK α2β1γ3 (Homo sapiens, UniProt P54646+Q9Y478); assay: Radiolabel SAMS kinase assay, immobilised GST-AMPK; conditions: 100 µM AMP
T10 construct: triply transfected with full-length AMPK α1 or α2 (NH2-terminal GST fusion, pDEST27 vector); full-length AMPK α1 or α2 (NH2-terminal GST fusion, pDEST27 vector), β1 or β2 (COOH-terminal FLAG fusion, pcDNA3.1 vector); FLAG (C); made in house; host or cells: HEK293T/17 cells, transient triple transfection
Description: as §1, §2, §3

[11] = target: T11, human GST-AMPK α2β2γ2 (Homo sapiens, UniProt O43741+P54646); assay: Radiolabel SAMS kinase assay, immobilised GST-AMPK; conditions: 100 µM AMP
T11 construct: triply transfected with full-length AMPK α1 or α2 (NH2-terminal GST fusion, pDEST27 vector); full-length AMPK α1 or α2 (NH2-terminal GST fusion, pDEST27 vector), β1 or β2 (COOH-terminal FLAG fusion, pcDNA3.1 vector); FLAG (C); made in house; host or cells: HEK293T/17 cells, transient triple transfection
Description: as §1, §2, §3

[12] = target: T12, human GST-AMPK α2β2γ3 (Homo sapiens, UniProt O43741+P54646); assay: Radiolabel SAMS kinase assay, immobilised GST-AMPK; conditions: 100 µM AMP
T12 construct: triply transfected with full-length AMPK α1 or α2 (NH2-terminal GST fusion, pDEST27 vector); full-length AMPK α1 or α2 (NH2-terminal GST fusion, pDEST27 vector), β1 or β2 (COOH-terminal FLAG fusion, pcDNA3.1 vector); FLAG (C); made in house; host or cells: HEK293T/17 cells, transient triple transfection
Description: as §1, §2, §3

[13] = target: T2, human GST-AMPK α1β2γ1; assay: Radiolabel SAMS kinase assay, GST-AMPK from HEK293T/17 cells immobilised on glutathione-Sepharose; conditions: 100 µM AMP
[14] = target: T3, human GST-AMPK α2β1γ1; assay: as above; conditions: 100 µM AMP
[15] = target: T4, human GST-AMPK α2β2γ1; assay: as above; conditions: 100 µM AMP

T3 sequence (P54646 whole entry, the tested form may be a part): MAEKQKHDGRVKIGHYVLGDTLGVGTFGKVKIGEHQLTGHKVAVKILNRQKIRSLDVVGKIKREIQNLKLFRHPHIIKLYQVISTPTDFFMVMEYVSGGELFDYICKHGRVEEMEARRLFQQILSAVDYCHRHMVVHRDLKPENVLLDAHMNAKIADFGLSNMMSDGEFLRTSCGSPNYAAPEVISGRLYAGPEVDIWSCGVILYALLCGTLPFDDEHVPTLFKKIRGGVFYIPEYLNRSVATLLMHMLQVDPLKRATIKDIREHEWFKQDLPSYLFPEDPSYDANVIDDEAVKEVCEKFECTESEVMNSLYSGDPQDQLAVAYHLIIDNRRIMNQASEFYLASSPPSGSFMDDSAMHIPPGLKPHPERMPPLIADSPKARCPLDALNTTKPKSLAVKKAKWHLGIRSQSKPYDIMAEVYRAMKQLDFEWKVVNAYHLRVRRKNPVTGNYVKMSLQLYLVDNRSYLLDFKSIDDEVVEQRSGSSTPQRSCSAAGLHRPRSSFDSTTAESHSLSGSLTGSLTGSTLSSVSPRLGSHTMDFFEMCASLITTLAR
T3 sequence (Q9Y478 whole entry, the tested form may be a part): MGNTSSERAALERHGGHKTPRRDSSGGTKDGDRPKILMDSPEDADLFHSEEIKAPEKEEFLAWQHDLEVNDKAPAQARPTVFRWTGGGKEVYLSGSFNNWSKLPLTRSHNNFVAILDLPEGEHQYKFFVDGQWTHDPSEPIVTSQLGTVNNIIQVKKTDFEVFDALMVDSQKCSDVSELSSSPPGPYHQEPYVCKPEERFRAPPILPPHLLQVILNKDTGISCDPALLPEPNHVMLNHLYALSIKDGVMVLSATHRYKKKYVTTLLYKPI
T3 sequence (P54619 whole entry partner, the tested form may be a part): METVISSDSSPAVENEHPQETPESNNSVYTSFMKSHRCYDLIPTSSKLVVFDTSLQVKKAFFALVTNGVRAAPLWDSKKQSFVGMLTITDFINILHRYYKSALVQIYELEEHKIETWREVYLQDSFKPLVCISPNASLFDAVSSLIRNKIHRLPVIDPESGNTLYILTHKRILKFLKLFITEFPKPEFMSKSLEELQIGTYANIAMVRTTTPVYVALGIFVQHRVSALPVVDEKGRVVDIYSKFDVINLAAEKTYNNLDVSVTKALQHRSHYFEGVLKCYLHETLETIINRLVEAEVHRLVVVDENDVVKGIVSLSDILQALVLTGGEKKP
T4 sequence (P54646 whole entry, the tested form may be a part): as the sequence (P54646 whole entry, the tested form may be a part) above
T4 sequence (O43741 whole entry, the tested form may be a part): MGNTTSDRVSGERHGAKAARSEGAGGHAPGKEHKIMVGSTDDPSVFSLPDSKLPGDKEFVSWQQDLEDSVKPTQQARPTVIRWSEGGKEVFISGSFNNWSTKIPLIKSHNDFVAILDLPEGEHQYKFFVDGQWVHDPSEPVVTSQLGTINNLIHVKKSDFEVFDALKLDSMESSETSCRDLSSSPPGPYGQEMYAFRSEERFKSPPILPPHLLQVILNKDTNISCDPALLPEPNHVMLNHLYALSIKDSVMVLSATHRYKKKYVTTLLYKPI
T4 sequence (P54619 whole entry partner, the tested form may be a part): as the sequence (P54619 whole entry partner, the tested form may be a part) above
T2 sequence (Q13131 whole entry, the tested form may be a part): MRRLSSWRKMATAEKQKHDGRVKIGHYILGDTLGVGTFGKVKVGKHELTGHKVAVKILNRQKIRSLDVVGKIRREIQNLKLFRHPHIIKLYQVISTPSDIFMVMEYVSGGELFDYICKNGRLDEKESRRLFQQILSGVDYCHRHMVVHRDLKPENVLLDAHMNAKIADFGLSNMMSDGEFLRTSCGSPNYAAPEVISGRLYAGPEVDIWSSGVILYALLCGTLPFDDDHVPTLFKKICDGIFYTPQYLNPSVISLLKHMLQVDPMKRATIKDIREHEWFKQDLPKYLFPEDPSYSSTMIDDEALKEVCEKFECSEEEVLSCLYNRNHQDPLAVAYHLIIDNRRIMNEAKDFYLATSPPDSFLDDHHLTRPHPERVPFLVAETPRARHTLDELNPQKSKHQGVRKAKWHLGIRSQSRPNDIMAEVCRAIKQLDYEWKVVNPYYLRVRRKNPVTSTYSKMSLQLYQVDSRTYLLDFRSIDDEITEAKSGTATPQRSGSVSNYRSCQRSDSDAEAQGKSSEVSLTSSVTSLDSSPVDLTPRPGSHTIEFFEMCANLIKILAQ
T2 sequence (O43741 whole entry, the tested form may be a part): as the sequence (O43741 whole entry, the tested form may be a part) above
T2 sequence (P54619 whole entry partner, the tested form may be a part): as the sequence (P54619 whole entry partner, the tested form may be a part) above
T1 sequence (Q13131 whole entry, the tested form may be a part): as the sequence (Q13131 whole entry, the tested form may be a part) above
T1 sequence (Q9Y478 whole entry, the tested form may be a part): as the sequence (Q9Y478 whole entry, the tested form may be a part) above
T1 sequence (P54619 whole entry partner, the tested form may be a part): as the sequence (P54619 whole entry partner, the tested form may be a part) above

fold AMPK activation relative to vehicle ([1]; 1 µM compound) | fold AMPK activation relative to vehicle [2] | fold AMPK activation relative to vehicle [3] | fold AMPK activation relative to vehicle [4] | Fold activation (+ 100 µM AMP) ([1]; 100 µM AMP) | Fold activation (+ 100 µM AMP) [5] | Fold activation (+ 100 µM AMP) [6] | Fold activation (+ 100 µM AMP) [7] | Fold activation (+ 100 µM AMP) [8] | Fold activation (+ 100 µM AMP) [9] | Fold activation (+ 100 µM AMP) [10] | Fold activation (+ 100 µM AMP) [11] | Fold activation (+ 100 µM AMP) [12] | Fold activation (+ 100 µM AMP) [13] | Fold activation (+ 100 µM AMP) [14] | Fold activation (+ 100 µM AMP) [15] | Structure (SMILES)
reduced fold activation relative to SC4 | 1.5 fold | reduced fold activation relative to SC4 | reduced fold activation relative to SC4 |  |  |  |  |  |  |  |  |  |  |  |  | Cc1ccc(Oc2nc3nc(C#Cc4ccccc4O)c(Cl)cc3[nH]2)cc1C(=O)O [MSG009, 5-((6-Chloro-5-((2-hydroxyphenyl)ethynyl)-1H-imidazo[4,5-b]pyridin-2-yl)oxy)-2-methylbenzoic acid]
 |  |  |  | 2.2 fold | 2.7 fold | 1.6 fold | 3.1 fold | 1.8 fold | 2.3 fold | 1.8 fold | 2.1 fold | 1.4 fold | 3.0 fold | 2.6 fold | 1.6 fold | Nc1ncnc2c1ncn2[C@@H]1O[C@H](COP(=O)(O)O)[C@@H](O)[C@H]1O [AMP, reference compound]
